Test in all cases: NCI tumour cell line growth inhibition, 48 h
The test system of test [1] is A549.
The test system of test [2] is ACHN.
In test [3] the test system is CCRF-CEM.
Test [4] has as its system COLO 205.
For test [5], the system named is EKVX.
Test [6] deals with HCT-15.
In test [7] the test system is HOP-62.
Test [8] has as its system K562.
The test system of test [9] is MOLT-4.
Test [10] deals with NCI-H23.
In test [11] the test system is OVCAR-3.
The test system of test [12] is OVCAR-4.
In test [13] the test system is SF-268.
In test [14] the test system is SF-295.
Test [15] has as its system SK-OV-3.
Test [16] relates to SN12C.
The subject of test [17] is U-251.
Test [18] relates to UACC-257.
In test [19] the test system is UACC-62.
In test [20] the test system is UO-31.

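Tested at 5 concentrations; 48 h exposure; 96-well plates; endpoints linearly interpolated, else capped at highest concentration. The concentration for 50% growth inhibition is given as GI50.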 The source made the active and inactive calls. Rule as the data show it: active = GI50 up to about 1.1 µM and inactive = higher. Where only a bound is given, the exact number is not on record here.

As to `Cc1ccc(/N=N/C(C2=NC(=O)CS2)c2nc3ccccc3[nH]2)cc1` (stereo not given), the GI50 was > 100 µM (inactive) in test [1]; > 100 µM (inactive) in test [2]; 29.9 µM (inactive) in [3]; > 100 µM (inactive) in [4]; > 100 µM (inactive) in test [5]; above 100 µM in [6]. For the same compound, the GI50 in test [7] is 27.2 µM (inactive); in [8], > 100 µM (inactive); in test [9], 20.7 µM (inactive); in [10] it was > 100 µM (inactive); in test [11] it was > 100 µM (inactive); in test [12], > 100 µM (inactive). In addition, the GI50 in test [13] is 38.5 µM (inactive); in [14] it was > 100 µM (inactive); in test [15], > 100 µM (inactive); in test [16], > 100 µM (inactive); in [17], > 100 µM (inactive); in [18], > 100 µM (inactive). Also, the GI50 in test [19] and in test [20] was > 100 µM (inactive) throughout.

In the case of `COc1cc2c(cc1O)CCN(C)[C@H]2Cc1ccc(Oc2c(O)c(OC)cc3c2C[C@H]2c4c(c(OC)c(OC)c(OC)c4-3)CCN2C)cc1` [THALIFABERIDINE], the GI50 in test [1] was 4.94 µM (inactive); in test [2], 5.71 µM (inactive); in test [3], 2.92 µM (inactive); in test [4], 7.08 µM (inactive); in [5] it was 5.92 µM (inactive); in test [6], 4.43 µM. For the same compound, the GI50 was 6.01 µM (inactive) in test [7]; 0.966 µM (active) in test [8]; 3 µM (inactive) in test [9]; 6.41 µM (inactive) in test [10]; 5.36 µM (inactive) in test [11]; 2.3 µM (inactive) in test [12]. Also, the GI50 is 5.66 µM (inactive) in [13]; 5.79 µM (inactive) in test [14]; 5.42 µM (inactive) in test [15]; 5.35 µM (inactive) in test [16]; 4.38 µM (inactive) in [17]; 7.01 µM (inactive) in test [18]. Also, the GI50 in [19] is 3.97 µM (inactive); in [20], 4.98 µM (inactive).

These data come from ChEMBL document CHEMBL1201862, “PubChem BioAssay data set” (2004).
